Experimental data: PubChem BioAssay AID504738 (National Center for Advancing Translational Sciences (NCATS), 2011)

Test system: kinetic aqueous solubility, PBS pH 7.4, LC-UV/MS
Assay: Inhibitors of Bloom's syndrome helicase: Aqueous Profiling Assay
Excerpt: Survival of cells and the faithful propagation of the genome depend on elaborate mechanisms of detecting and repairing DNA damage. Treatment of advanced cancer relies on radiation therapy or chemotherapy, which kill cancer cells by causing extensive DNA damage. It is often found, that cancer cells develop resistance to therapy through enhanced activity of DNA repair functions; this has led to an increased interest in developing drugs that interfere with DNA repair, which could sensitize cancer cells to conventional therapy. Bloom syndrome helicase (BLM), is important in resolving abnormal DNA structures formed during replication or homologous recombination. Shutting down the expression of BLM leads to chromosomal instability and higher radiation sensitivity in cultured cells. This bioassay provides profiling data on aqueous kinetic solubility (PBS @ pH 7.4) of one of the lead compounds developed in the APE1 inhibitors project. NIH Chemical Genomics Center [NCGC] NIH Molecular Libraries Probe Production Centers Network [MLPCN] MLSCN Grant: MH087284 PI Name: Dr. Opher Gileadi, Structural Genomics Consortium, University of Oxford, UK
1. 8ul of reference and test compound stock solution were added to 392ul 100mM phosphate buffer (pH 7.4) 2. Sample tubes were shaken for 1 hr (1000 rpm) at room temperature 3. […] Concentration of the supernatant was determined by LC-UV or LC-MS/MS

solubility: 2 µM
SMILES: O=C(Nc1ccc(F)c(C(F)(F)F)c1)Nc1nnc(-c2ccncc2)s1
